From patent US20210128735A1, “BIOCOMPATIBLE COPOLYMER CONTAINING MULTIPLE ACTIVE AGENT MOLECULES” (priority 2018, published 2021)
Where two headings read alike, the source gives them in different places.

System: HepG2 cells
Assay: Exploratory toxicity: eight cell health parameters (CHP) by automated fluorescent cellular imaging (ArrayScan)
Format: cell-based
Conditions: for MTD (row Cell count): concentration at which <20% cell loss was observed; for AC50: Homo sapiens
Experimental: The polymeric carriers of this disclosure are not biodegradable. […] An exploratory toxicity study of a polymeric carrier of the present disclosure (without payload) was performed. Briefly, HepG2 cells were plated on 96-well black walled, clear bottomed polystyrene plates at 100 μL per well. Test compound was a H2N-G3-Cellophil copolymer (12 kDa) containing DMA and AK (90/10 mol %) that was prepared by the procedure described in example 13, step 7. The HepG2 cells were dosed with test compound at concentrations from 0.04 to 100 μM. At the end of 72-h incubation at 37° C., appropriate dies or antibodies were added to the cultures. The plates were then scanned using an automated fluorescent cellular imager (ArrayScan®, Thermo Scientific Cellomics).
The following eight cell health parameters (CHP) were evaluated:
Cell count: A decreasing number of cells per well indicates toxicity due to necrosis, apoptosis or a reduction in cellular proliferation. Nuclear size: An increase in nuclear area can indicate necrosis or G2 cell cycle arrest, and a decrease can indicate apoptosis. DNA structure: An increase in DNA structure can indicate chromosomal instability and DNA fragmentation. Mitochondrial mass: A decrease in mitochondrial mass indicates loss of total mitochondria and an increase implies mitochondrial swelling or an adaptive response to cellular energy demands. Mitochondrial membrane potential (Δψm): A decrease indicates a loss of mitochondrial integrity, typically resulting in apoptotic signaling; an increase in mitochondrial membrane potential indicates an adaptive response to cellular energy demands. Oxidative stress: An increase in reactive oxygen species (ROS) is an early cytotoxic response. Glutathione content: A decrease in glutathione (GSH) content can result from production of ROS or from direct binding to tested compound. An increase in GSH content represents an adaptive cellular response to oxidative stress. Cellular ATP: After cell lysis, ATP is released from the cell. Cells which are not metabolically active will not release any ATP. Therefore, a decrease in metabolically active cells will result in a decrease in the level of ATP detected.

[1] = HepG2, 72-h incubation, NR = no response

SMILES | MEC, Cell count (HepG2, 72-h incubation at 37° C., 0.04 to 100 μM, MEC = lowest dose at which an effect is detected, NR = no response) [µM] | MEC, Cellular ATP [1] [µM] | MEC, Nuclear size [1] [µM] | MEC, Oxidative stress [1] [µM] | MEC, DNA structure (HepG2, 72-h incubation, NR = no response, NS = not statistical significant) [µM] | MTD (row Cell count) [1] [µM] | AC50 (HepG2, 72-h incubation, NR = no response, NS = not statistical significant, read-out: AC50, DNA structure) [µM] | AC50 (HepG2, 72-h incubation, NR = no response, read-out: AC50, Cellular ATP) [µM] | AC50 (HepG2, 72-h incubation, NR = no response, read-out: AC50, Glutathione content) [µM] | AC50 (HepG2, 72-h incubation, NR = no response, read-out: AC50, Mitochondrial mass) [µM] | AC50 (HepG2, 72-h incubation, NR = no response, read-out: AC50, Mitochondrial membrane potential) [µM] | AC50 (HepG2, 72-h incubation, NR = no response, read-out: AC50, Nuclear size) [µM] | AC50 (HepG2, 72-h incubation, NR = no response, read-out: AC50, Oxidative stress) [µM] | AC50 (HepG2, 72-h incubation, concentration at which 50% of the maximum effect is observed, NR = no response, read-out: AC50, Cell count) [µM] | MEC, Cellular ATP [µM] | MEC, Glutathione content [µM]
N#CC(C#N)=NNc1cccc(Cl)c1 [control 1, carbonyl cyanide 3-chlorophenylhydrazone] | 1.73 | 3.13 | 3.76 | 0.539 | 0.63 | 2 | 46.7 | 4.15 | > 100 | > 100 | > 100 | 8.09 | 22.4 | 2.54 |  | 
CCCCS(=N)(=O)CCC(N)C(=O)O [control 2, L-buthionine-sulfoximine] |  |  |  |  |  | 40 |  |  |  |  |  |  |  |  | 14.4 | 1.7
